Reference: patent publication US4590161A, “Microbiologically produced L-phenylalanine-dehydrogenase, process for its recovery and use” (priority 1983, dated 1986)

Assays:
[1] = tested on: Brevibacterium species DSM 2448; assay: Induction of aminoacid-dehydrogenases: reductive amination of α-ketocarboxylic acids by crude extracts of cells grown with different inductors; format: cell-based; details: for α-Ketocarboxylic acid Conversion, 3 2-Keto-4-(methylmercapto)-butyric acid / α-Ketocarboxylic acid Conversion, 6 2-Keto-4-methylpentanoic acid / α-Ketocarboxylic acid Conversion, 5 2-Keto-hexanoic acid / α-Ketocarboxylic acid Conversion, 4 Indolyl pyruvic acid / α-Ketocarboxylic acid Conversion, 2 p-Hydroxyphenyl pyruvic acid / α-Ketocarboxylic acid Conversion, 1 Phenyl pyruvic acid: crude extract of cells grown 24 h at 30° C. with 1% inductor; for α-Ketocarboxylic acid Conversion, 3 2-Keto-4-(methylmercapto)-butyric acid: substrate 2-keto-4-(methylmercapto)-butyric acid; for α-Ketocarboxylic acid Conversion, 6 2-Keto-4-methylpentanoic acid: substrate 2-keto-4-methylpentanoic acid; for α-Ketocarboxylic acid Conversion, 5 2-Keto-hexanoic acid: substrate 2-keto-hexanoic acid; for α-Ketocarboxylic acid Conversion, 4 Indolyl pyruvic acid: substrate indolyl pyruvic acid, aminoacid analyzer; for α-Ketocarboxylic acid Conversion, 2 p-Hydroxyphenyl pyruvic acid: substrate p-hydroxyphenyl pyruvic acid; for α-Ketocarboxylic acid Conversion, 1 Phenyl pyruvic acid: substrate phenyl pyruvic acid
[2] = tested on: L-phenylalanine-dehydrogenase; assay: Photometric test of reductive amination (decrease of NADH at 340 nm)
Method: The enzyme activity is determined with a photometric test, by measuring the decrease of the adsorption of NADH at 340 nm. […] The reaction rate of the catalyzed reaction is measured in relation of pH. […] If the substrate concentration of the aromatic α-ketocarboxylic acids or of the aromatic L-aminocarboxylic acids is small compared to their Km value then the reaction rate depends linearly on the substrate concentration.
The relationship of the speed of reaction of the reductive amination of phenyl pyruvate to L-phenylalanine for the substrate NADH was investigated in the following test mixture:
The dependency of the speed of reaction of the reductive amination of phenyl pyruvate to L-phenylalanine on the ammonium ion concentration was investigated in the following test mixture.

NC(Cc1ccccc1)C(=O)O (racemic) [D,L-Phe, D,L-phenylalanine]
α-Ketocarboxylic acid Conversion, 3 2-Keto-4-(methylmercapto)-butyric acid [1]: 0,85 U/ml | α-Ketocarboxylic acid Conversion, 6 2-Keto-4-methylpentanoic acid [1]: 0 U/ml | α-Ketocarboxylic acid Conversion, 5 2-Keto-hexanoic acid [1]: 0 U/ml | α-Ketocarboxylic acid Conversion, 4 Indolyl pyruvic acid [1]: 0,35 U/ml | α-Ketocarboxylic acid Conversion, 2 p-Hydroxyphenyl pyruvic acid [1]: 1,68 U/ml | α-Ketocarboxylic acid Conversion, 1 Phenyl pyruvic acid [1]: 1,98 U/ml

C[C@H](N)C(=O)O [L-Ala, L-alanine]
α-Ketocarboxylic acid Conversion, 3 2-Keto-4-(methylmercapto)-butyric acid [1]: 0 U/ml | α-Ketocarboxylic acid Conversion, 6 2-Keto-4-methylpentanoic acid [1]: 0 U/ml | α-Ketocarboxylic acid Conversion, 5 2-Keto-hexanoic acid [1]: 0 U/ml | α-Ketocarboxylic acid Conversion, 4 Indolyl pyruvic acid [1]: 0 U/ml | α-Ketocarboxylic acid Conversion, 2 p-Hydroxyphenyl pyruvic acid [1]: 0 U/ml | α-Ketocarboxylic acid Conversion, 1 Phenyl pyruvic acid [1]: 0 U/ml

N[C@@H](CCC(=O)O)C(=O)O [L-Glu, L-glutamic acid]
α-Ketocarboxylic acid Conversion, 3 2-Keto-4-(methylmercapto)-butyric acid [1]: 0 U/ml | α-Ketocarboxylic acid Conversion, 6 2-Keto-4-methylpentanoic acid [1]: 0 U/ml | α-Ketocarboxylic acid Conversion, 5 2-Keto-hexanoic acid [1]: 0 U/ml | α-Ketocarboxylic acid Conversion, 4 Indolyl pyruvic acid [1]: 0 U/ml | α-Ketocarboxylic acid Conversion, 2 p-Hydroxyphenyl pyruvic acid [1]: 0 U/ml | α-Ketocarboxylic acid Conversion, 1 Phenyl pyruvic acid [1]: 0 U/ml

N[C@@H](Cc1c[nH]cn1)C(=O)O [L-His, L-histidine]
α-Ketocarboxylic acid Conversion, 3 2-Keto-4-(methylmercapto)-butyric acid [1]: 0,37 U/ml | α-Ketocarboxylic acid Conversion, 6 2-Keto-4-methylpentanoic acid [1]: 0 U/ml | α-Ketocarboxylic acid Conversion, 5 2-Keto-hexanoic acid [1]: 0 U/ml | α-Ketocarboxylic acid Conversion, 4 Indolyl pyruvic acid [1]: 0,16 U/ml | α-Ketocarboxylic acid Conversion, 2 p-Hydroxyphenyl pyruvic acid [1]: 0,71 U/ml | α-Ketocarboxylic acid Conversion, 1 Phenyl pyruvic acid [1]: 1,02 U/ml | Induction of L-phenylalanine-dehydrogenase ([1]; result in words): acts as an inductor

CC[C@H](C)[C@H](N)C(=O)O [L-Ile, L-isoleucine]
α-Ketocarboxylic acid Conversion, 3 2-Keto-4-(methylmercapto)-butyric acid [1]: 0 U/ml | α-Ketocarboxylic acid Conversion, 6 2-Keto-4-methylpentanoic acid [1]: 0,47 U/ml | α-Ketocarboxylic acid Conversion, 5 2-Keto-hexanoic acid [1]: 0,37 U/ml | α-Ketocarboxylic acid Conversion, 4 Indolyl pyruvic acid [1]: 0 U/ml | α-Ketocarboxylic acid Conversion, 2 p-Hydroxyphenyl pyruvic acid [1]: 0 U/ml | α-Ketocarboxylic acid Conversion, 1 Phenyl pyruvic acid [1]: 0 U/ml

CC(C)C[C@H](N)C(=O)O [L-Leu, L-leucine]
α-Ketocarboxylic acid Conversion, 3 2-Keto-4-(methylmercapto)-butyric acid [1]: 0 U/ml | α-Ketocarboxylic acid Conversion, 6 2-Keto-4-methylpentanoic acid [1]: 0,68 U/ml | α-Ketocarboxylic acid Conversion, 5 2-Keto-hexanoic acid [1]: 0,52 U/ml | α-Ketocarboxylic acid Conversion, 4 Indolyl pyruvic acid [1]: 0 U/ml | α-Ketocarboxylic acid Conversion, 2 p-Hydroxyphenyl pyruvic acid [1]: 0 U/ml | α-Ketocarboxylic acid Conversion, 1 Phenyl pyruvic acid [1]: 0 U/ml

CCCC[C@H](N)C(=O)O [L-Norleu, L-norleucine]
α-Ketocarboxylic acid Conversion, 3 2-Keto-4-(methylmercapto)-butyric acid [1]: 0 U/ml | α-Ketocarboxylic acid Conversion, 6 2-Keto-4-methylpentanoic acid [1]: 1,11 U/ml | α-Ketocarboxylic acid Conversion, 5 2-Keto-hexanoic acid [1]: 0,20 U/ml | α-Ketocarboxylic acid Conversion, 4 Indolyl pyruvic acid [1]: 0 U/ml | α-Ketocarboxylic acid Conversion, 2 p-Hydroxyphenyl pyruvic acid [1]: 0 U/ml | α-Ketocarboxylic acid Conversion, 1 Phenyl pyruvic acid [1]: 0 U/ml

CC(C)[C@H](N)C(=O)O [L-Val, L-valine]
α-Ketocarboxylic acid Conversion, 3 2-Keto-4-(methylmercapto)-butyric acid [1]: 0 U/ml | α-Ketocarboxylic acid Conversion, 6 2-Keto-4-methylpentanoic acid [1]: 1,28 U/ml | α-Ketocarboxylic acid Conversion, 5 2-Keto-hexanoic acid [1]: 0,15 U/ml | α-Ketocarboxylic acid Conversion, 4 Indolyl pyruvic acid [1]: 0 U/ml | α-Ketocarboxylic acid Conversion, 2 p-Hydroxyphenyl pyruvic acid [1]: 0 U/ml | α-Ketocarboxylic acid Conversion, 1 Phenyl pyruvic acid [1]: 0 U/ml

NC(=O)C1=CN([C@@H]2O[C@H](COP(=O)(O)OP(=O)(O)OC[C@H]3O[C@@H](n4cnc5c(N)ncnc54)[C@H](O)[C@@H]3O)[C@@H](O)[C@H]2O)C=CC1 [NADH, nicotinamide-adenine-dinucleotide]
NADH concentration of highest reaction rate [2]: about 0.3 mmole/l | NADH concentration of optimum speed of reaction ([2]; crude extract, pH 8.5, 10 mM phenyl pyruvate): 0.3 mM | Km ([2]; read-out: Km value for NADH, crude extract, pH 8.5, 10 mM phenyl pyruvate): 64 µM

ammonium chloride [NH4 Cl]
α-Ketocarboxylic acid Conversion, 3 2-Keto-4-(methylmercapto)-butyric acid [1]: 0 U/ml | α-Ketocarboxylic acid Conversion, 6 2-Keto-4-methylpentanoic acid [1]: 0 U/ml | α-Ketocarboxylic acid Conversion, 5 2-Keto-hexanoic acid [1]: 0 U/ml | α-Ketocarboxylic acid Conversion, 4 Indolyl pyruvic acid [1]: 0 U/ml | α-Ketocarboxylic acid Conversion, 2 p-Hydroxyphenyl pyruvic acid [1]: 0 U/ml | α-Ketocarboxylic acid Conversion, 1 Phenyl pyruvic acid [1]: 0 U/ml
